Reference: US20090233999A1, “COMPOSITIONS AND THERAPEUTIC METHODS INVOLVING ISOFLAVONES AND ANALOGUES THEREOF” (NOVOGEN RESEARCH PTY LTD, priority 1999, published 2009)
Marks after values point to notes of the source that are not given here.

How the values were obtained:
[1] = DPPH free radical scavenging; conditions: DPPH 0.1 mM, 20 minutes; read-out: Free radical scavenging ability EC50
Procedure: The antioxidant (free radical trapping) activity of test compounds was assessed using the stable free radical compound 2,2-diphenyl-1-picrylhydrazyl (DPPH). A stock solution of DPPH was prepared at a concentration of 0.1 mM in ethanol and mixed for 10 minutes prior to use. Test compounds at a concentration of 100 μM were reacted with DPPH for 20 minutes, after which time the absorbance at 517 nm was determined and the change in absorbance compared to a reagent blank (DPPH with ethanol alone). A dose response curve was produced for those compounds with free radical scavenging activity (ΔAbs>0.3) at 100 μM. The IC50 value was estimated as the concentration of test compound that caused a 0.6 change in absorbance (with 1.2 absorbance units representing total scavenging of the DPPH radical).

[2] = test system: red blood cells; test: Peroxyl radical (AAPH)-induced red blood cell lysis; assay type: cell-based; conditions: 10 μM; AAPH-induced RBC lysis; vehicle 40.0
Procedure: Freshly collected heparinised venous blood (10 ml, on ice) was aliquotted into 1.8 ml sterile eppendorf tubes and centrifuged for 10 minutes at 2600 rpm at 4° C. Plasma and buffy coat layers were removed (approximately 900 μl) and packed red blood cells (RBC) were then washed by the addition of 900 μl of sterile, ice cold PBS. This washing procedure was repeated twice. Packed RBC were resuspended by the addition of 900 μl of ice-cold, sterile PBS (and termed RBC stock). RBC stocks were stored at 4° C. for a maximum of three days. All working suspensions of RBC were prepared fresh daily by diluting 200 μl of RBC stock into 10 ml of ice-cold, sterile PBS and 50 μl added to each well.
The free radical generator AAPH (1.22 gm) was dissolved in 7.5 ml of PBS to yield a 4× stock at 600 mM and 50 μl aliquots (final concentration of 150 mM) were then added to each well to initiate the lysis assay. Test compounds were examined at […] (in DMSO 0.25%). Appropriate controls were included in each experiment. Peroxyl-induced RBC lysis assays were performed in 96-flat bottom well microtitre plates with a total volume of 200 μl per well. Turbidity of RBC suspensions were monitored using a Tecan microplate reader at 690 nm (37° C.) with gentle vortexing. Assays were performed in quadruplicate and readings were taken every 5 minutes over 5 hours. RBC lysis curves were constructed by plotting absorbance (mean of 4 readings) against time. Time to half-lysis was calculated by taking the highest absorbance reading (no lysis) and the lowest absorbance reading (maximum lysis). The sum of these two readings divided by two gave the absorbance at half-lysis. Simple regression analysis was used to calculate the time at which half-lysis absorbance occurred.

[3] = test system: superoxide; test: Extracellular superoxide production by differentiated HL-60 cells (cytochrome C reduction); assay type: cell-based, human; conditions: for extracellular superoxide production, % change compared with vehicle control: HL-60, PMA; for inhibition of superoxide production: Cpd. 16 at 100 μM
Procedure: The human promyeloblast cell line HL-60 can be differentiated into neutrophil-like cells, which then produce ROS when activated. HL-60 cells were grown in RPMI-1640 medium containing glutamine and supplemented with FBS 20%. They were differentiated by culturing for 6 days in medium containing DMSO 1.25%, after which they were washed, centrifuged and incubated at 37° C. for 5 minutes with cytochalasin before transfer to PBS containing cytochrome C and test compound. After a 5 minute incubation, phorbol myristate acetate (PMA) was added to activate the HL-60 cells, which were then incubated for a further 10 minutes. The cells were then pelleted by centrifugation, and the change in absorbance due to reduction of cytochrome C in the cell-free supernatant was measured at 550 nm. The increase in absorbance is a direct measure of extracellular superoxide production by the cells, and a reduction in those samples incubated with test compounds would indicate anti-oxidant activity. Samples were examined in duplicate, and the assay done three times.

[4] = test system: HCASMC; test: Proliferation of human coronary artery smooth muscle cells; assay type: cell-based; conditions: VSMC, 120 h, five days, MTT
Procedure: Human coronary smooth muscle cells (HCASMC—Clonetics) supplied at passage 3 and used for up to a further 12 population doublings, were seeded into 96 well plates at a low seeding rate, 2-5×10^3 cells per well and allowed to attach and proliferate to 30-40% confluence for 24-48 hours. Prior to inoculation the medium was changed to fresh growth medium. Test compounds were prepared in growth medium and added to plates so that the final concentrations were a series from 150 μM to 0.6 μM. The cells were incubated for five days, cell number assessed using MTT and an IC50 for each compound calculated.

[5] = test system: HUVSMC; test: Proliferation of human umbilical vein smooth muscle cells; assay type: cell-based; conditions: VSMC, 120 h, 5 days
Procedure: Human umbilical vein smooth muscle cells (HUVSMC), tissue explants from a neonate (HRI— passage 2), were seeded into 96 well plates at 1×10^3 cells per well, and allowed to attach for 24 hours. They were then washed twice and incubated in medium without FBS for 24-48 hours to serum-starve them. Test compounds were prepared in medium without FBS and added to the plates and incubated for one hour. Medium with FBS was added to give a final concentration of 10% and the plates incubated for 5 days until the controls were just confluent. Final analogue concentration was therefore either a series from 150 μM to 1.2 μM, or single concentrations of 10 μM. The difference in absorbance between treated cells and untreated cells was calculated using the formula, test/control*100, to obtain the percentage change caused by the test compound. As well, an IC50 for each compound was calculated.

[6] = test system: BALB/c mice (PMA-induced ear swelling); test: Murine ear inflammation assay, PMA-induced ear swelling; assay type: in vivo, mouse; conditions: 25 mg/kg i/p; for % Change compared with vehicle / Change in ear thickness (mean ± SD, ×0.01 mm): PMA, 5 hr post-PMA
Procedure: Female BALB/c mice (ARC, WA, Australia), weighing 15-21 g, and maintained on an isoflavone-free diet (Gordon's Specialty Stock Foods, Yanderra, NSW) for at least seven days, were randomised into test groups of five or six. To reduce animal use, mice had ear swelling induced by applying AA (Sigma, Steinheim, Germany) initially, and then by phorbol 12-Myristate 13-acetate (PMA—Sigma, Mo., USA) one week later.
Test compounds were dissolved in polyethylene glycol (PEG) 400 (Sigma, St. Louis, Mo., USA):phosphate buffered saline 1:1 and injected intraperitoneally (i/p) at a dose of 25 mg/kg either 30 min prior to AA treatment or 1 hr prior to PMA treatment. Mice were anaesthetised using isoflurane (Veterinary Companies of Australia Pty Ltd, NSW, Australia) and baseline thickness of both ears was measured using a spring micrometer (Interapid, Zurich, Switzerland). Each mouse received a total of 20 μL of either AA in ethanol (50 mg/ml) or PMA in acetone (0.2 mg/ml) applied to the inner and outer surfaces of each pinna (i.e. 5 μL per ear surface). Mice were anaesthetised again to remeasure the ears at 1 hr post-AA application or at 5 hr post-PMA application.
The difference in ear swelling pre- and post-application of inflammogen for each ear was calculated. The difference in mean swelling of each test group compared to the group given vehicle alone was calculated using a two-tailed unpaired t-test (Prism 4, Graphpad Software).

SMILES | EC50 [1] | Time taken to reach half-lysis [2] | extracellular superoxide production, % change compared with vehicle control ([3]; 10 μM) | extracellular superoxide production, % change compared with vehicle control ([3]; 100 μM) | inhibition of superoxide production [3] | IC50 [4] | IC50 [5] | inflammation caused by the application of PMA [6] | % Change compared with vehicle [6] | Change in ear thickness (mean ± SD, ×0.01 mm) [6]
COc1ccc(C2=Cc3ccc(O)c(C)c3OC2)cc1OC [Cpd. 19, 7-Hydroxy-3′,4′-dimethoxy-8-methylisoflav-3-ene] | 74 µM | 111.6 min | −11% | 16% | trend towards inhibition | 63 µM | 34 µM | significantly inhibited | −26% | 22.1 ± 3.9 ×0.01 mm
COc1ccc(C2=Cc3ccc(O)cc3OC2)cc1OC [Cpd. 18, 7-Hydroxy-3′,4′-dimethoxyisoflav-3-ene] | 48 µM | 107.7 min | −24% | −36* % |  | 88 µM | 140 µM |  | −1% | 29.6 ± 2.7 ×0.01 mm
Oc1ccc(C2=Cc3ccc(O)c(Br)c3OC2)cc1 [Cpd. 20, 4′,7-Dihydroxy-8-bromoisoflav-3-ene] | 24 µM | 122.0 min | 6% | 28% | not active | 27 µM | 32 µM |  | +4% | 22.7 ± 4.7 ×0.01 mm
Oc1ccc2c(c1)OCC(c1ccc(Br)cc1)=C2 [Cpd. 21, 4′-Bromo-7-hydroxyisoflav-3-ene] | 43 µM | 140.8 min | −10% | −11% | trend towards inhibition | 29 µM | 8 µM |  | +24% | 27.2 ± 8.6 ×0.01 mm
COc1cccc(C2=Cc3ccc(O)cc3OC2)c1 [Cpd. 16, 7-Hydroxy-3′-methoxyisoflav-3-ene] | 45 µM | 164.3 min | −22% | −57* % | significantly inhibited | 118 µM | 63 µM |  | −11% | 23.3 ± 4.5 ×0.01 mm
Cc1c(O)ccc2c1OCC(c1cccc(O)c1)=C2 [Cpd. 14, 3′,7-Dihydroxy-8-methylisoflav-3-ene] | 47 µM | 134.7 min | −20% | −20% | trend towards inhibition | 54 µM | 64 µM |  | +7% | 27.9 ± 3.8 ×0.01 mm
